Reference: US9492398B2, “Nanocapsulation of essential oils for preventing or curing infectious diseases alone or with an antibiotic” (Eydo Pharma, priority 2011, dated 2016)
In brackets after ≈: the same amount, converted by molar mass. Where two headings read alike, the source gives them in different places.

Experiments:
[1] = from the literature; cited from earlier work
S. aureus ATCC25923 = experiment: Minimal inhibitory concentration on Mueller Hinton Agar (Example 13); format: cell-based, Staphylococcus aureus; conditions: Staphlococcus aureus
Protocol: (§1) Mueller Hinton Agar was used in a standardized disk diffusion procedure for determining the susceptibility of rapidly growing aerobic microorganisms to antimicrobial agents.
(§2) The test to evaluate the increase in resistance was carried out with a concentration of the product of two times the Minimal Inhibitory Concentration (MIC).

SARM S. aureus ATCC25923 [2] = experiment: as above; format: cell-based, Staphylococcus aureus; conditions: Staphylococcus aureus
Protocol: as §1, §2

SARM S. aureus ATCC25923 [3] = experiment: In vitro emergence of resistance over passages; format: cell-based, Staphylococcus aureus
Protocol: as §1, §2

Compound: CN(C)[C@@H]1C(O)=C(C(N)=O)C(=O)[C@@]2(O)C(O)=C3C(=O)c4c(O)ccc(Cl)c4[C@@H](O)[C@H]3C[C@@H]12 [Demeclocyclin]
- LD50 in mice by intraperitoneal injection [1]: 120 mg/kg

Compound: CC[C@H]1OC(=O)[C@H](C)[C@@H](O[C@H]2C[C@@](C)(OC)[C@@H](O)[C@H](C)O2)[C@H](C)[C@@H](O[C@@H]2O[C@H](C)C[C@H](N(C)C)[C@H]2O)[C@](C)(O)C[C@@H](C)C(=O)[C@H](C)[C@@H](O)[C@]1(C)O [Erythromycin]
- LD50 in mice by intraperitoneal injection [1]: 280 mg/kg

Compound: CO[C@@H]1[C@@H](O[C@@H]2O[C@H](C)[C@@H](O[C@H]3C[C@@](C)(O)[C@@H](OC(=O)CC(C)C)[C@H](C)O3)[C@H](N(C)C)[C@H]2O)[C@@H](CC=O)C[C@@H](C)[C@@H](O)/C=C/C=C/C[C@@H](C)OC(=O)C[C@H]1OC(C)=O [Josamycin]
- LD50 in mice by intraperitoneal injection [1]: 780 mg/kg

Compound: CCN1CCN(C(=O)N[C@@H](C(=O)N[C@@H]2C(=O)N3[C@@H]2SC(C)(C)[C@@H]3C(=O)O)c2ccccc2)C(=O)C1=O [Piperacillin]
- LD50 in mice by intraperitoneal injection [1]: 9970 mg/kg

Compound: CO[C@H]1/C=C/O[C@@]2(C)Oc3c(C)c(O)c4c(O)c(c(/C=N/N5CCN(C)CC5)c(O)c4c3C2=O)NC(=O)/C(C)=C\C=C\[C@H](C)[C@H](O)[C@@H](C)[C@@H](O)[C@@H](C)[C@H](OC(C)=O)[C@@H]1C [Rifampicin]
- 2 times the minimal inhibitory concentration (S. aureus ATCC25923): 160 ng/mL
- MIC (SARM S. aureus ATCC25923 [2]; ATCC25923, read-out: Minimal inhibitory concentration): 8 ng/mL (≈ 9.72 nM)
- MIC (SARM S. aureus ATCC25923 [2]; ATCC25923, read-out: Minimal inhibitory concentration/4): 2 ng/mL (≈ 2.43 nM)
- appearance of resistance, passage (SARM S. aureus ATCC25923 [3]; Staphylococcus aureus): 6
- concentration at which inhibitory activity reappeared (SARM S. aureus ATCC25923 [3]; after appearance of resistance): 0.38 ml/I
- times the initial minimal inhibitory concentration (SARM S. aureus ATCC25923 [3]; after appearance of resistance): 47.5
